Converted amounts (≈) assume the structure as drawn. Structures can show the parent of a compound that is named as a salt.
Tests used:
[1] = system: Hep3B2. 1-7 human hepatoma carcinoma cells; experiment: Tumor cell IC50, CCK-8 kit, Hep3B; type: cell-based
Excerpt: (§1) The inhibitory activities of the compounds on tumor cells (IC50) in vitro
(§2) The IC50 (IC50, unit: μg/ml) values of the compounds on Hut78 T-Lymphocytic Leukemia cells, Jurkat E6-1 human T-cell lymphoma, PANC-1 human pancreatic cancer cells, A549 human lung cancer cells, K562 human chronicity marrow leukemic cells, Hep3B2. 1-7 human hepatoma carcinoma cells, MDA-MB-435s human breast carcinoma cells, Colo320 human rectal cancer cells, PC-3 human carcinoma of prostate, and HepG2 human hepatoma carcinoma cells were determined using a CCK-8 kit. Erlotinib hydrochloride was used as the positive control drug.

[2] = system: MDA-MB-435s human breast carcinoma cells; experiment: Tumor cell IC50, CCK-8 kit, MDA-MB-435s; type: cell-based; conditions: 435s cells
Excerpt: as §1, §2

[3] = system: PC-3 human carcinoma of prostate; experiment: Tumor cell inhibition ratio, CCK-8 kit, PC-3; conditions: read-out: Antiproliferative effect (inhibition ratio) PC-3
Excerpt: (§3) The inhibitory activities of the compounds on tumor cells in vitro

[4] = system: Jurkat E6-1 human T-cell lymphoma; experiment: Tumor cell IC50, CCK-8 kit, Jurkat E6-1; type: cell-based; conditions: E6-1 cells
Excerpt: as §1, §2

[5] = system: A549 human lung cancer cells; experiment: Tumor cell inhibition ratio, CCK-8 kit, A549; conditions: A549, read-out: Antiproliferative effect (inhibition ratio) A549
Excerpt: as §3

[6] = system: Colo320 human rectal cancer cells; experiment: Tumor cell IC50, CCK-8 kit, Colo320; type: cell-based; conditions: COLO 320
Excerpt: as §1, §2

[7] = system: Jurkat E6-1 human T-cell lymphoma; experiment: Tumor cell inhibition ratio, CCK-8 kit, Jurkat E6-1; conditions: Jurkat E6.1, read-out: Antiproliferative effect (inhibition ratio) E6-1
Excerpt: as §3

[8] = system: Colo320 human rectal cancer cells; experiment: Tumor cell inhibition ratio, CCK-8 kit, Colo320; conditions: COLO 320, read-out: Antiproliferative effect (inhibition ratio) Colo320
Excerpt: as §3

[9] = system: PANC-1 human pancreatic cancer cells; experiment: Tumor cell IC50, CCK-8 kit, PANC-1; type: cell-based; conditions: PANC-1 cells
Excerpt: as §1, §2

[10] = system: MDA-MB-435s human breast carcinoma cells; experiment: Tumor cell inhibition ratio, CCK-8 kit, MDA-MB-435s; conditions: read-out: Antiproliferative effect (inhibition ratio) 435s
Excerpt: as §3

[11] = system: K562 human chronicity marrow leukemic cells; experiment: Tumor cell IC50, CCK-8 kit, K562; type: cell-based
Excerpt: as §1, §2

[12] = system: Hut78 T-Lymphocytic Leukemia cells; experiment: Tumor cell inhibition ratio, CCK-8 kit, Hut78; conditions: Homo sapiens, HuT78, read-out: Antiproliferative effect (inhibition ratio) Hut-78
Excerpt: as §3

[13] = system: Hut78 T-Lymphocytic Leukemia cells; experiment: Tumor cell IC50, CCK-8 kit, Hut78; type: cell-based; conditions: Homo sapiens, Hut-78 cells
Excerpt: as §1, §2

[14] = system: K562 human chronicity marrow leukemic cells; experiment: Tumor cell inhibition ratio, CCK-8 kit, K562; conditions: K562, read-out: Antiproliferative effect (inhibition ratio) K562
Excerpt: as §3

[15] = system: PANC-1 human pancreatic cancer cells; experiment: Tumor cell inhibition ratio, CCK-8 kit, PANC-1; conditions: PANC-1, read-out: Antiproliferative effect (inhibition ratio) PANC-1
Excerpt: as §3

aurora kinase B = target: T1, aurora kinase B (Homo sapiens, UniProt Q96GD4); experiment: Aurora kinase B inhibition in vitro (Invitrogen aurora kinase screening kit PV3174); type: biochemical
T1 construct: purchased Invitrogen PV3174

[16] = system: A549 human lung cancer cells; experiment: Tumor cell IC50, CCK-8 kit, A549; type: cell-based
Excerpt: as §1, §2

[17] = system: Hep3B2.1-7 human hepatoma carcinoma cells; experiment: Tumor cell inhibition ratio, CCK-8 kit, Hep3B; conditions: read-out: Antiproliferative effect (inhibition ratio) Hep3B
Excerpt: as §3

[18] = system: PC-3 human carcinoma of prostate; experiment: Tumor cell IC50, CCK-8 kit, PC-3; type: cell-based; conditions: PC-3 cells
Excerpt: as §1, §2

EGFR tyrosine kinase = EGFR tyrosine kinase (Homo sapiens, UniProt P00533); experiment: EGFR tyrosine kinase inhibition in vitro (Invitrogen EGFR inhibitor screening kit PV3193)
Sequence of EGFR tyrosine kinase (P00533 25-1210): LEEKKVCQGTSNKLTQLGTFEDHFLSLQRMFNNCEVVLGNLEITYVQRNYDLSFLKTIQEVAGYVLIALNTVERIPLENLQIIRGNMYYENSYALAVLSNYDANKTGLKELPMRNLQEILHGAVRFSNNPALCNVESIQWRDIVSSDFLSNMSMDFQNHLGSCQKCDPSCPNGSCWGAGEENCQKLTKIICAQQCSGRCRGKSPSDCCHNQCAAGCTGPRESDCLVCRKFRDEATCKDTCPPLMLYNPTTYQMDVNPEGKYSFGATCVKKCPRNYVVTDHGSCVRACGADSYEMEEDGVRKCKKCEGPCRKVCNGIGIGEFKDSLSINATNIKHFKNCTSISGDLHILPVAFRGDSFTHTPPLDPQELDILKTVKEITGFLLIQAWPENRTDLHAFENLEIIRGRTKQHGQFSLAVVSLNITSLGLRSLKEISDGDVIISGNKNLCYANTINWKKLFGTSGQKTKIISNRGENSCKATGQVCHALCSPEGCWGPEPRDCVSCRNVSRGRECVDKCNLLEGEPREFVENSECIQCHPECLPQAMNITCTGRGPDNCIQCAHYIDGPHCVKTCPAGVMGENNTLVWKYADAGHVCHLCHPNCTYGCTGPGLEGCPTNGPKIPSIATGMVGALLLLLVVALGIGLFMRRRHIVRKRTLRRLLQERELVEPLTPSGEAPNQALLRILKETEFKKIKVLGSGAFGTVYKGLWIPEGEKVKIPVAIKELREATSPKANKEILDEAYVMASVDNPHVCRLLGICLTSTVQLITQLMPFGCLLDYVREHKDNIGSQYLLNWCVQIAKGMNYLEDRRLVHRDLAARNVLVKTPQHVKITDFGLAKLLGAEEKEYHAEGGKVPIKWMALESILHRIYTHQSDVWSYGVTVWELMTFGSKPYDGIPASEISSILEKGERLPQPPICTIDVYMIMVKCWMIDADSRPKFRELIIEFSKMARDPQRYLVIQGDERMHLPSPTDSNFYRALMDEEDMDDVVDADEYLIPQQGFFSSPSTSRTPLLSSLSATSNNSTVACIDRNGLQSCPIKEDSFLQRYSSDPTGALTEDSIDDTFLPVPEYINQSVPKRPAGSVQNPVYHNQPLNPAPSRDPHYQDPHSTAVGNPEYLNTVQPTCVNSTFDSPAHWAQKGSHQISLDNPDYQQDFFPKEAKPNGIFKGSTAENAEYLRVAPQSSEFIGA
Excerpt: The inhibitory activities of EGFR tyrosine kinase in vitro
Erlotinib hydrochloride was used as a positive control drug.

T1 sequence (Q96GD4 whole entry): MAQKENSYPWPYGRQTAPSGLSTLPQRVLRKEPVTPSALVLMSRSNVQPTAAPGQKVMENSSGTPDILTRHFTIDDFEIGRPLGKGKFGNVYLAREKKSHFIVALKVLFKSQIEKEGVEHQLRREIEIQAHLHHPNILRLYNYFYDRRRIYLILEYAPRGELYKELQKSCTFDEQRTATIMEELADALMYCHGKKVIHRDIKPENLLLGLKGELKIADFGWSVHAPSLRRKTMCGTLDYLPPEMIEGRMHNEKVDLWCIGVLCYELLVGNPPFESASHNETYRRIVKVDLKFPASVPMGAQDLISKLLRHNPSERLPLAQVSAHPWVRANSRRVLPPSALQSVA

For `COc1cc2c(cc1OCCCN1CCOCC1)C1=Nc3cc(Cl)ccc3CN1C=N2` [Compound V-28, 4-(3-((11-chloro-3-methoxy-8H-quinazolino[4,3-b]quinazoline-2-yl)oxy)propyl)morpholine], the IC50 [1] was 36.8 µg/mL (≈ 83.3 µM), the IC50 [2] was 16.3 µg/mL (≈ 37 µM) and the inhibition at 10 µM [3] was 56.4%. The inhibition at 100 µM [3] was 88%, the IC50 [4] was 10 µg/mL (≈ 22.7 µM) and the inhibition at 10 µM [5] was 53.7%. The inhibition at 100 µM [5] was 97.5%, the IC50 [6] was 59.7 µg/mL (≈ 135 µM) and the inhibition at 10 µM [7] was 40.4%. It also gave an inhibition at 100 µM [7] of 95.4%, an inhibition at 10 µM [8] of 16.3% and an inhibition at 100 µM [8] of 63.3%. For the same compound, the IC50 [9] was 18.8 µg/mL (≈ 42.6 µM), the inhibition at 10 µM [10] was 54.9% and the inhibition at 100 µM [10] was 90.7%. The IC50 [11] was 7.84 µg/mL (≈ 17.8 µM), the inhibition at 10 µM [12] was 59.2% and the inhibition at 100 µM [12] was 90.5%. The IC50 [13] was 16.7 µg/mL (≈ 37.9 µM), the inhibition at 10 µM [14] was 64.6% and the inhibition at 100 µM [14] was 99.9%. The inhibition at 10 µM [15] was 51.7%, the inhibition at 100 µM [15] was 95.6% and the “The inhibition ratio of the compound on Aurora B(%)” value (aurora kinase B; 40 μM) was 45.2%. For the same compound, the “The inhibition ratio of the compound on Aurora B(%)” value (aurora kinase B; 200 μM) was 78.7%, the IC50 [16] was 6.42 µg/mL (≈ 14.6 µM) and the inhibition at 10 µM [17] was 40.1%. For the same compound, the inhibition at 100 µM [17] was 92.8%, the IC50 [18] was 31.4 µg/mL (≈ 71.3 µM) and the “The inhibition ratio of the compound on EGFR(%)” value (EGFR tyrosine kinase; 40 μM) was 64.4%. The “The inhibition ratio of the compound on EGFR(%)” value (EGFR tyrosine kinase; 200 μM) was 98.7%.
Compound `COCCOc1cc2c(cc1OCCOC)C1=Nc3cccc(NC(C)=O)c3CN1C=N2` [Compound V-11, N-{2,3-bis(2-methoxyethoxy)-8H-quinazolino[4,3-b]quinazoline}acetamide] has an IC50 [1] of 26.1 µg/mL (≈ 59.5 µM), an IC50 [2] of 6.79 µg/mL (≈ 15.5 µM) and an inhibition at 10 µM [3] of 55.1%. For the same compound, the inhibition at 100 µM [3] was 89.7%, the IC50 [4] was 39.9 µg/mL (≈ 90.9 µM) and the inhibition at 10 µM [5] was 63.1%. For the same compound, the inhibition at 100 µM [5] was 99.2%, the IC50 [6] was 34.6 µg/mL (≈ 78.8 µM) and the inhibition at 10 µM [7] was 41.6%. The inhibition at 100 µM [7] was 90.8%, the inhibition at 10 µM [8] was 41.6% and the inhibition at 100 µM [8] was 96.3%. It also gave an IC50 [9] of 6.72 µg/mL (≈ 15.3 µM), an inhibition at 10 µM [10] of 41% and an inhibition at 100 µM [10] of 89.5%. For the same compound, the IC50 [11] was 40.6 µg/mL (≈ 92.6 µM), the inhibition at 10 µM [12] was 31% and the inhibition at 100 µM [12] was 72.8%. The IC50 [13] was 26.8 µg/mL (≈ 61.1 µM), the inhibition at 10 µM [14] was 50.5% and the inhibition at 100 µM [14] was 86%. The inhibition at 10 µM [15] was 57.9%, the inhibition at 100 µM [15] was 91.3% and the “The inhibition ratio of the compound on Aurora B(%)” value (aurora kinase B; 40 μM) was 53.5%. For the same compound, the “The inhibition ratio of the compound on Aurora B(%)” value (aurora kinase B; 200 μM) was 96.7%, the IC50 [16] was 4.64 µg/mL (≈ 10.6 µM) and the inhibition at 10 µM [17] was 57.1%. For the same compound, the inhibition at 100 µM [17] was 82.8%, the IC50 [18] was 36.8 µg/mL (≈ 83.9 µM) and the “The inhibition ratio of the compound on EGFR(%)” value (EGFR tyrosine kinase; 40 μM) was 56.4%. The “The inhibition ratio of the compound on EGFR(%)” value (EGFR tyrosine kinase; 200 μM) was 85.6%.
In the case of `COCCOc1cc2c(cc1OCCOC)C1=Nc3ccc(F)c(Cl)c3CN1C=N2` [Compound V-13, 9-chloro-10-fluoro-2,3-bis(2-methoxyethoxy)-8H-quinazolino[4,3-b]quinazoline], the IC50 [1] is reported as 0.32 µg/mL (≈ 0.738 µM), the IC50 [2] is reported as 31.4 µg/mL (≈ 72.4 µM) and the inhibition at 10 µM [3] is reported as 61.4%. The inhibition at 100 µM [3] was 87.7%, the IC50 [4] was 3.89 µg/mL (≈ 8.97 µM) and the inhibition at 10 µM [5] was 43%. It also gave an inhibition at 100 µM [5] of 91.1%, an IC50 [6] of 9.88 µg/mL (≈ 22.8 µM) and an inhibition at 10 µM [7] of 52.6%. The inhibition at 100 µM [7] was 98%, the inhibition at 10 µM [8] was 59.7% and the IC50 [9] was 14.9 µg/mL (≈ 34.3 µM). It also gave an inhibition at 10 µM [10] of 26.8%, an inhibition at 100 µM [10] of 67.9% and an IC50 [11] of 11 µg/mL (≈ 25.3 µM). The inhibition at 10 µM [12] was 66.2%, the inhibition at 100 µM [12] was 101% and the IC50 [13] was 0.62 µg/mL (≈ 1.43 µM). For the same compound, the inhibition at 10 µM [14] was 66.2%, the inhibition at 100 µM [14] was 98.5% and the inhibition at 10 µM [15] was 45.9%. For the same compound, the inhibition at 100 µM [15] was 87.2%, the “The inhibition ratio of the compound on Aurora B(%)” value (aurora kinase B; 40 μM) was 55.2% and the “The inhibition ratio of the compound on Aurora B(%)” value (aurora kinase B; 200 μM) was 95.8%. It also gave an IC50 [16] of 10.7 µg/mL (≈ 24.7 µM), an inhibition at 10 µM [17] of 64.7% and an inhibition at 100 µM [17] of 102%. For the same compound, the IC50 [18] was 9.78 µg/mL (≈ 22.5 µM), the “The inhibition ratio of the compound on EGFR(%)” value (EGFR tyrosine kinase; 40 μM) was 45.7% and the “The inhibition ratio of the compound on EGFR(%)” value (EGFR tyrosine kinase; 200 μM) was 88.9%.
`COCCOc1cc2c(cc1OCCOC)C1=Nc3cccc(O)c3CN1C=N2` [Compound V-8, 9-hydroxy-2,3-bis(2-methoxyethoxy)-8H-quinazolino[4,3-b]quinazoline] showed an IC50 [1] of 33.1 µg/mL (≈ 83.4 µM), an IC50 [2] of 27.6 µg/mL (≈ 69.5 µM) and an inhibition at 10 µM [3] of 45.2%. It also gave an inhibition at 100 µM [3] of 94%, an IC50 [4] of 8.11 µg/mL (≈ 20.4 µM) and an inhibition at 10 µM [5] of 52.8%. It also gave an inhibition at 100 µM [5] of 80%, an IC50 [6] of 29.8 µg/mL (≈ 74.9 µM) and an inhibition at 10 µM [7] of 44%. For the same compound, the inhibition at 100 µM [7] was 85.4%, the inhibition at 10 µM [8] was 64.5% and the inhibition at 100 µM [8] was 94.8%. The IC50 [9] was 21.2 µg/mL (≈ 53.3 µM), the inhibition at 10 µM [10] was 55% and the inhibition at 100 µM [10] was 93.7%. It also gave an IC50 [11] of 63.1 µg/mL (≈ 159 µM), an inhibition at 10 µM [12] of 35.6% and an inhibition at 100 µM [12] of 75.9%. For the same compound, the IC50 [13] was 53.1 µg/mL (≈ 134 µM), the inhibition at 10 µM [14] was 52.4% and the inhibition at 100 µM [14] was 92.2%. For the same compound, the inhibition at 10 µM [15] was 41.5%, the inhibition at 100 µM [15] was 89.8% and the “The inhibition ratio of the compound on Aurora B(%)” value (aurora kinase B; 40 μM) was 32.3%. For the same compound, the “The inhibition ratio of the compound on Aurora B(%)” value (aurora kinase B; 200 μM) was 96.4%, the IC50 [16] was 30 µg/mL (≈ 75.5 µM) and the inhibition at 10 µM [17] was 52.4%. For the same compound, the inhibition at 100 µM [17] was 87.3%, the IC50 [18] was 9.9 µg/mL (≈ 24.9 µM) and the “The inhibition ratio of the compound on EGFR(%)” value (EGFR tyrosine kinase; 40 μM) was 52.3%. The “The inhibition ratio of the compound on EGFR(%)” value (EGFR tyrosine kinase; 200 μM) was 95.6%.
Work on `C#Cc1cccc(Nc2ncnc3cc(OCCOC)c(OCCOC)cc23)c1` [Erlotinib hydrochloride, reference compound] yielded an IC50 [1] of 62.3 µg/mL, an IC50 [2] of 13.1 µg/mL and an IC50 [4] of 35.6 µg/mL. It also gave an IC50 [6] of 40.4 µg/mL, an IC50 [9] of 32.5 µg/mL and an IC50 [11] of 39.9 µg/mL. For the same compound, the IC50 [13] was 43.2 µg/mL, the IC50 [16] was 19.3 µg/mL and the IC50 [18] was 54.2 µg/mL.

Source: patent US20110288086A1, “POLYCYCLIC QUINAZOLINES, PREPARATION THEREOF, AND USE THEREOF” (priority 2010, published 2011)
